Laboratory results published in patent US20140161769A1, “METHODS FOR TREATING INFLAMMATORY AUTOIMMUNE DISORDERS” (Beth Israel Deaconess Medical Center, Inc., priority 2010, published 2014).

Legend:
[1] = tested on: macrophages; experiment: Cytokine production in normal human macrophages; format: cell-based; details: supernatants from macrophages incubated with PBS or LPS, KN-93 vs PBS
Method: (§1) FIG. 15A is a bar graph showing IFN-γ levels in supernatants from human T cells incubated with PBS or CD3/28 and treated with either PBS (white bars) or with KN-93 (black bars). FIG. 15B are histograms comparing CD69 expression in human T cells incubated with PBS (left) or with CD3/28 (right). Data are shown for control (gray), treatment with PBS (dotted line), and treatment with KN-93 (solid line). FIG. 15C is a series of bar graphs showing […] (left), IL-6 (middle), and TNF-α(right) levels in supernatants from macrophages incubated with PBS or LPS and treated with either PBS (white bars) or with KN-93 (black bars). Normal human T cells and macrophages were treated with PBS (control) or KN-93. […] Furthermore, the activity of IL-6 in murine mesangial cells decreases in the absence of CaMKIV. Taken together, inhibition of CaMKIV by KN-93 or absence of CaMKIV (e.g., by genetic deficiency) decreases the expression of various pro-inflammatory cytokines, and inhibitors of CaMKIV could be used to treat disorders associated with one or more of such cytokines (e.g., autoimmune disorders).

[2] = tested on: primary mesangial cells; experiment: Western blot of CDK2 and cyclin D1 in mesangial cells; format: cell-based, mouse; details: mesangial cells from MRL/MPJ or MRL/lpr mice, immunoblot
Method: FIG. 16A is a series of histograms in unstimulated cells (left) and cells stimulated with PDGF (right). FIG. 16B is a series of immunoblots of protein extracts obtained from murine mesangial cells and immunoblotted with anti-CDK2 or anti-cyclin D1 antibodies. After isolation from MRL/MPJ or MRL/lpr mice, these cells were untreated, treated with KN-93, treated with PDGF, or treated with both KN-93 and PDGF. Briefly, four hundred thousand primary mesangial cells were incubated in 2 mL of RPMI 1640 with 10% FBS. Cells were plated in 6-well plates and made quiescent by serum starvation for 24 hours. Then, cells were treated with 20 ng/ml of PDGF-BB (PeproTech, Inc. Rocky Hill, N.J.) for 24 hours. In some experiments, cells were pretreated with KN-93 (20 μM) for 48 hours before the addition of PDGF-BB. For Western blot analysis, mesangial cells were homogenized in radioimmunoprecipitation assay (RIPA) buffer at 4° C. After centrifugation at 14,000 rpm for 30 min at 4° C., supernatant was collected and stored at −80° C. until use. The following antibodies were used for immunoblot assay: rabbit anti-CDK2, rabbit anti-cyclin D1 (Cell signaling) and rabbit anti-actin (Sigma).

[3] = tested on: Splenocytes isolated from MRL/lpr mice; experiment: CD86 expression on CD19 positive B cells of MRL/lpr splenocytes (flow cytometry); format: cell-based, mouse; details: KN-93 (10 μM)
Method: Splenocytes were isolated from MRL/lpr mice and stimulated with LPS (1 μg/ml) or PBS for 24 hours. FIGS. 10A and 10C are bar graphs showing the expression of CD86 in LPS-stimulated cells (FIG. 10A) and unstimulated cells (FIG. 10C). A Kruskal-Wallis test was used for statistical analyses. Results are expressed as mean+SD CP=0.01; n=three 24-week-old mice per group). FIGS. 10B and 10D are representative histograms comparing CD86 expression on LPS-stimulated (FIG. 10B) and unstimulated splenocytes (FIG. 10D). Splenocytes were treated with KN-93 (10 μM) (right panel) or PBS (left panel) for 24 hours. Shaded areas represent isotype control staining.
We wished to determine whether CaMKIV deficiency suppresses CD86 expression in all types of antigen presenting cells (APC). Splenocytes were isolated from MRL/lpr and MRL/lprCaMKIV−/− mice and stimulated with LPS (1 μg/ml) or PBS for 24 hours. We stained cells with fluorochrome-conjugated antibodies against the major histocompatibility complex (MHC) class II (eBioscience) (all APCs), CD19 (B cells), CD11c (dendritic cells), and F4/80 (macrophages) (BioLegend). […]
Splenocytes isolated from MRL/lpr mice were stimulated with LPS (1 μg/ml) or PBS for 24 hours in the presence or absence of KN-93. CD19 positive B cells were analyzed for the expression of CD86. […]

[4] = tested on: MRL/lpr mice; experiment: Treatment of MRL/lpr mice with KN-93 (lupus nephritis; urine and kidney histopathology); format: in vivo, mouse
Method: FIG. 7A is a graph showing the weekly quantification of urinary protein and leukocytes of pre-disease 8-week-old MRL/lpr mice treated with either KN-93 (40 mg/kg) or PBS. The agent was administered by intraperitoneal injections three times a week, every other week, during an 8-week time period. The arrows indicate the administration of the treatment. FIG. 7B is a graph showing the weekly quantification of urinary protein and leukocytes of diseased 12-week-old MRL/lpr mice (n≧5 mice per group) treated with KN-93 or PBS. Treatment was administered three times a week during a 5-week time period. FIG. 7C is a series of representative images of glomerular, tubule-interstitial, and perivascular areas from 16-week-old MRL/lpr mice treated with PBS (upper panels) and KN-93 (stained with Periodic Acid Schiff). The photographs from the middle panels correspond to mice treated before the onset of proteinuria (8 week-old). The lower panels correspond to mice treated after the disease had been established. The magnification is ×40 (glomerular), ×10 (tubular), and ×20 (perivascular).
We recorded proteinuria and pyuria in CaMKIV-deficient and sufficient MRL/lpr mice from the 6th to the 24th week of age. The mice in each group were placed overnight in a Nalgene metabolic cage to collect urine. Urine was measured with Multistix 10SG reagent strips and analyzed by a Clinitek Status analyzer (Bayer Healthcare). Proteinuria increased to 3 g/L in MRL/lpr mice at the age of 14 weeks and remained at the same level thereafter. However, in MRL/lprCaMKIV−/− mice, proteinuria remained at 1 g/L throughout the observation period. The number of leukocytes in the urine increased to 500 μl at week 14 in MRL/lpr mice, whereas it remained less than 15 μl in MRL/lprCaMKIV−/− mice (FIG. 4A).
To rule out such possibility, we used KN-93, a well-known CaMKIV inhibitor (Tsung et al., J Exp Med. 204: 2913-2923, 2007; Sato et al., Nat Med. 12: 1410-1416, 2006; and Ilario et al., Blood 111: 723-731, 2008), to treat MRL/lpr mice and determine its effect on the expression of lupus nephritis. The agent was administered by intraperitoneal injections at a dose of 0.08 mg/mouse, three times a week. We treated MRL/lpr mice with PBS (control) or KN-93 either every other week from week 8 to week 16 (disease prevention) (FIG. 7A) or weekly from week 12 to week 16 (disease treatment) (FIG. 7B).
In the disease prevention experiment, KN-93 administration was started either before the onset of proteinuria, when the mice were 8 weeks old. These mice received the agent every other week. In the disease treatment experiment, the effectiveness of KN-93 in established disease was evaluated. KN-93 administration was started when mice were 12 weeks old and continued three times a week during 5 weeks. Mice of both experiments were sacrificed at the end of their 16th week of age.

[5] = tested on: Normal human T cells; experiment: IFN-γ production and CD69 expression in normal human T cells; format: cell-based
Method: as §1

[6] = tested on: primary mesangial cells; experiment: Mesangial cell proliferation (cell cycle analysis, flow cytometry); format: cell-based, mouse
Method: FIG. 16A is a series of histograms in unstimulated cells (left) and cells stimulated with PDGF (right). FIG. 16B is a series of immunoblots of protein extracts obtained from murine mesangial cells and immunoblotted with anti-CDK2 or anti-cyclin D1 antibodies. After isolation from MRL/MPJ or MRL/lpr mice, these cells were untreated, treated with KN-93, treated with PDGF, or treated with both KN-93 and PDGF. Briefly, four hundred thousand primary mesangial cells were incubated in 2 mL of RPMI 1640 with 10% FBS. Cells were plated in 6-well plates and made quiescent by serum starvation for 24 hours. Then, cells were treated with 20 ng/ml of PDGF-BB (PeproTech, Inc. Rocky Hill, N.J.) for 24 hours. In some experiments, cells were pretreated with KN-93 (20 μM) for 48 hours before the addition of PDGF-BB. For cell cycle analysis, mesangial cells were harvested with trypsin, washed twice with PBS, fixed in cold 95% ethanol, and stored at 4° C. until use. Before flow cytometric analysis, cells were washed with PBS and centrifuged, and the cell pellets were resuspended in a solution of RNAse (0.5 mg/ml) in PBS and incubate at 37° C. for 20 minutes. Then, propidium iodide (PI) (40 μg/ml) was added in PBS for 30 minutes. Stained cells were analyzed with a flow cytometer (model FACS Scan; BD Bioscience, Franklin Lakes, N.J.). […]

[7] = kidneys of KN-93 treated MRL/lpr mice

COc1ccc(S(=O)(=O)N(CCO)c2ccccc2CN(C)CC=Cc2ccc(Cl)cc2)cc1 [KN-93, N-[2-[[[3-(4-chlorophenyl)-2-propenyl]methylamino]methyl]phenyl]-N-(2-hydroxyethyl)-4-methoxybenzenesulphonamide]
production of IL-1β [1]: decreased production | production of IL-6 [1]: decreased production | production of TNF-α [1]: decreased production | presence of CD-K2 [2]: decreased | presence of cyclin D1 [2]: decreased | expression of CD86 on stimulated cells ([3]; LPS (1 μg/ml) 24 hours): suppressed | expression of CD86 in non-LPS stimulated cells ([3]; PBS 24 hours): trend towards lower expression | kidney pathology, determined histopathologically ([4]; 16-week-old MRL/lpr mice, KN-93 vs PBS): less kidney pathology | protein in the urine (proteinuria) ([4]; MRL/lpr mice, KN-93 i.p. 0.08 mg/mouse three times a week, both schemes (every other week, weeks 8-16; weekly, weeks 12-16), PBS-treated mice 3 g/L): less than 1 g/L | leukocytes in the urine (pyuria) ([4]; MRL/lpr mice, KN-93 i.p. 0.08 mg/mouse three times a week, both schemes, PBS-treated mice 500 leukocytes/μl): < 125 leukocytes/μl | glomerular crescents [4, 7]: did not have any glomerular crescents | glomerular damage, interstitial, and perivascular inflammatory cell infiltration [4, 7]: limited | expression of CD69 on T cells ([5]; normal human T cells, KN-93 vs PBS): decreased expression | production of IFN-γ ([5]; supernatants from human T cells incubated with PBS or CD3/28, KN-93 vs PBS): decreased production | mesangial cell proliferation ([6]; with PDGF stimulation (20 ng/ml PDGF-BB 24 hours), pretreated with KN-93 (20 μM) 48 hours): suppressed | mesangial cell proliferation ([6]; without PDGF stimulation, KN-93 (20 μM) 48 hours): suppressed
